Data: paper PMC6864407 (Pharmacology Research & Perspectives, 2019)

Tests used:
neovascular AMD = conditions: eye‐drop formulations; cited from earlier work
[1] = system: VEGF‐induced fluorescein leakage; parameters: method as in PMID 23169884; conditions: ocular instillation in rabbits; cited from earlier work
[2] = system: choroidal neovascularization; parameters: method as in PMID 21620822; conditions: after ocular instillation in rats; cited from earlier work
in vivo = conditions: rat, topical or ocular; for half-life: t1/2, rat
Experimental: (§2) The both eyes (dosed eye and nondosed eye) were collected and washed by water, and then the eye tissues (the choroid/sclera and retina) were collected.
(§3) An aliquot of acetonitrile solution containing an internal standard was added to the plasma sample and mixed. After centrifugation, supernatant was mixed with 10 mmol/L ammonium acetate solution to prepare a sample for determination of drug concentration by liquid chromatography‐tandem mass spectrometry (LC/MS/MS). An aliquot of 50 vol% methanol was added to the eye tissues, and then homogenized by a beads shocker to prepare homogenate samples. An aliquot of the acetonitrile solution containing the internal standard was added to the homogenate samples and mixed. After centrifugation, supernatant was mixed with 10 mmol/L ammonium acetate solution to prepare samples for the determination of drug concentrations.
(§4) LC/MS/MS system consisted of ACQUITY UPLC system (Waters Corporation) and QTRAP6500 (AB SCIEX) was used for the determination of drug concentrations. The prepared samples were separated by ACQUITY UPLC peptide BEH C18 column (1.7 µm, 2.1 × 50 mm) (Waters Corporation, Milford, MA), with mobile phase A: 10 mmol/L ammonium acetate solution and mobile phase B: acetonitrile. After injection of the prepared samples to LC/MS/MS, the samples were eluted (0.2 mL/minutes) with 30% B followed 0.10 minutes isocratic period; 3.90 minutes linear gradient to 70% B; 0.01 minutes linear gradient to 30% B; and 1.49 minutes isocratic period. Multiple reaction monitoring was performed by using an atmospheric pressure chemical ionization probe, and monitor ion of regorafenib and pazopanib were 482.958/270.000 (m/z, Q1/Q3) and 438.184/356.900 (m/z, Q1/Q3), respectively.
(§5) The pharmacokinetic parameters of regorafenib and pazopanib in the eye tissues and plasma were calculated by average concentrations in the eye tissues and plasma. Maximum concentration (Cmax) and the time to reach Cmax (tmax) were obtained directly from the observed values. Log‐transformed concentrations were plotted against time. The elimination rate constant (ke) was estimated by linear least‐squares method using the last 2 or 3 observed data points. Apparent half‐life (t1/2) was obtained as ln2/ke. Area under the concentration vs time curve (AUC) from time 0 to the observed data point (AUC0‐t) was calculated using the linear trapezoidal method. AUC after the last data point was estimated by extrapolating with the ke and added up with AUC0‐t to calculate AUC from time 0 to infinity (AUC0‐∞).

[3] = Pharmacokinetic study (ocular distribution) in monkeys after single ocular instillation; conditions: monkey, 4 h, regorafenib 17.1 mg/mL (50 μL/eye) or pazopanib 5.0 mg/mL (30 μL/eye)
Experimental: (§1) In the rabbit and monkey studies, sample preparation and determination of drug concentrations were performed in the same manner for the rat pharmacokinetic study.

[4] = Pharmacokinetic study in rats after single ocular instillation; conditions: rat; for AUC0‐t / AUC0‐∞ / AUC: single ocular instillation, 10 μL/eye; for AUC0‐t / AUC0‐∞ / AUC / Concentration: regorafenib 21.2 mg/mL or pazopanib 4.9 mg/mL; for concentration at 0.5 h: topical; for half-life / Tmax / AUC: topical or ocular; for Concentration: choroid/sclera, 0.01 mL; for choroid/sclera concentration: 0.5 hours after administration;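 for all read-outs here: drug levels in plasma and homogenized choroid/sclera and retina quantified by LC/MS/MS, parameters derived from mean concentrations, t1/2 from terminal log-linear slope, AUC via linear trapezoids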
Experimental: as §2, §3, §4, §5

melanin = system: melanin; parameters: method as in PMID 23385800; conditions: cited from earlier work
laser‐induced CNV = experiment: Laser‐induced monkey CNV model; conditions: for Change in incidence of Grade 4 lesions between Day‐1 and Day35: Fisher's exact test, Day‐1 vs Day 35; for Percentage of Grade 4 lesion: aflibercept 500 μg/eye intravitreal once, mean of 6 eyes
Experimental: Pharmacological study in laser‐induced monkey CNV model was conducted by referring to and optimizing the previous researches.28, 29, 30 Animals were allocated to groups to minimize bias in the incidence and severity of CNV lesions and body weight between the groups.
After the induction of mydriasis by instillation of Mydrin‐P ophthalmic solution has been confirmed, animals were anesthetized by intramuscular injection with a mixture solution of ketamine hydrochloride/xyladine (7/1, v/v). A fundus contact lens (Centralis Direct; Volk Optical Inc) was attached to the cornea with Scopisol solution and the position of the macula was confirmed. Laser was irradiated on the macula to induce CNV (8 sites per eye, 6 eyes per group). The laser irradiation conditions were as follows; wavelength: 532 nm, spot size: 80 μm, irradiation time: 0.1 seconds, and laser output: 1000 mW. The laser irradiation was conducted 21 days before the initiation of ocular instillation of test articles.
Aflibercept (500 μg/eye) was administered by intravitreal injection to the animals once 22 days after the laser irradiation.
In the aflibercept dosed group, fluorescein fundus angiography and CNV grade evaluation were conducted at the same time points in eye‐drops dosed groups.
Fluorescite Intravenous Injection 500 mg was administered into the cephalic vein under mydriasis and anesthesia. Photographs of fundus were taken with a fundus camera (VX‐10α; Kowa Co., Ltd., Aichi, Japan) approximately 1, 3, and 5 minutes after the administration of fluorescein. Each CNV lesion was graded as follows; Grade 1: no hyperfluorescence, Grade 2: hyperfluorescence without leakage, Grade 3: hyperfluorescence in the early (1 minute after administration of fluorescein) or midtransit (3 minutes after administration of fluorescein) images and late (5 minutes after administration of fluorescein) leakage, Grade 4: bright hyperfluorescence in the early or midtransit images and late leakage beyond the treated area in reference to the previous studies.28, 29, 30 The incidences of Grade 1, Grade 2, Grade 3 and Grade 4 lesions in the each eye (6 eyes per group) were calculated by the following equation, the incidence of grade lesion (%) = the number of grade lesions/ 8 × 100. The mean value of the incidences of Grade 4 lesions was calculated from 6 individual data in each group.
Fisher's exact test was performed for the incidence of Grade 4 lesions between Day‐1 and Day 35 in each group. MiTOX System (Mitsui E&S Systems Research Inc (former company name; Mitsui Zosen Systems Research Inc) was used for the statistical analysis at a two‐sided significance level of 5%.

[5] = Pharmacokinetic study in rabbits after single ocular instillation; conditions: rabbit, choroid/retina, 1.5 h, regorafenib 24.1 mg/mL or pazopanib 5.0 mg/mL, 0.02 mL
Experimental: as §1

[6] = choroid/sclera of the dosed eye
[7] = in vivo, choroid/sclera of dosed eye, single ocular instillation, regorafenib 21.2 mg/mL or pazopanib 4.9 mg/mL, 10 μL/eye
[8] = in vivo, plasma, single ocular instillation, regorafenib 21.2 mg/mL or pazopanib 4.9 mg/mL, 10 μL/eye

## Cc1ccc(Nc2nccc(N(C)c3ccc4c(C)n(C)nc4c3)n2)cc1S(N)(=O)=O.Cl [Pazopanib, 5‐[[4‐[(2,3‐dimethylindazol‐6‐yl)‐methylamino]pyrimidin‐2‐yl]amino]‐2‐methylbenzenesulfonamide hydrochloride]
Neovascular AMD
  Clinical efficacy of eye‐drop formulation in neovascular AMD: lack of efficacy
[1]
  Suppression of VEGF‐induced fluorescein leakage in the posterior eye tissues: failed to suppress
[2]
  Effect on angiogenesis and vascular hyperpermeability: reduced angiogenesis and vascular hyperpermeability
In vivo; [6]
  Tmax: 4 h
[3]; cornea, nondosed eye
  Concentration: BLQ (<1) ng/g
[4]; choroid/sclera of dosed eye
  AUC0‐t: 42 100 h × ng/g
  AUC0‐∞: 112 000 h × ng/g
[4]; [6]
  concentration at 0.5 h: 293 ng/g
  half-life: 245 h
[4]; choroid/sclera of the nondosed eye
  concentration at 0.5 h: 11.3 ng/g
[4]; plasma
  Tmax: 0.5 h
  half-life: 20.1 h
[4]; plasma, AUC0‐t
  AUC: 1280 ng·h/mL
[4]; plasma, AUC0‐∞
  AUC: 1300 ng·h/mL
[4]; retina of dosed eye
  AUC0‐t: 3450 ng·h/g
  AUC0‐∞: 6660 ng·h/g
[4]; retina of the dosed eye
  Tmax: 120 h
[4]; retina of the dosed eye, 4.9 mg/mL (10 μL/eye)
  half-life: 159 h
melanin
  Binding to melanin: strongly binds to melanin
laser‐induced CNV
  Change in incidence of Grade 4 lesions between Day‐1 and Day35: no significant difference

## CNC(=O)c1cc(Oc2ccc(NC(=O)Nc3ccc(Cl)c(C(F)(F)F)c3)c(F)c2)ccn1.O [Regorafenib, 4‐[4‐ ({[4‐Chloro‐3‐(trifluoromethyl)phenyl]carbamoyl}amino)‐3‐fluorophenoxy]‐N‐methylpyridine‐2‐carboxamide monohydrate]
Neovascular AMD
  Clinical efficacy of eye‐drop formulation in neovascular AMD: lack of efficacy
In vivo; in vivo, AUC0‐t, plasma, single ocular instillation, regorafenib 21.2 mg/mL or pazopanib 4.9 mg/mL, 10 μL/eye
  AUC: 1010 ng·h/mL
In vivo; in vivo, AUC0‐∞, plasma, single ocular instillation, regorafenib 21.2 mg/mL or pazopanib 4.9 mg/mL, 10 μL/eye
  AUC: 1060 ng·h/mL
In vivo; [7]
  Cmax: 1310 ng/g
  half-life: 29.7 h
In vivo; [8]
  Cmax: 38.6 ng/mL
  half-life: 23.9 h
In vivo; in vivo, retina of dosed eye, single ocular instillation, regorafenib 21.2 mg/mL or pazopanib 4.9 mg/mL, 10 μL/eye
  Cmax: 28 ng/g
In vivo; in vivo, tmax
  Tmax: 0.5 h
In vivo; in vivo, tmax, plasma, single ocular instillation, regorafenib 21.2 mg/mL or pazopanib 4.9 mg/mL, 10 μL/eye
  Tmax: 7 h
In vivo; in vivo, tmax, retina of dosed eye, single ocular instillation, regorafenib 21.2 mg/mL or pazopanib 4.9 mg/mL, 10 μL/eye
  Tmax: 7 h
[5]; dosed eye
  Concentration: BLQ (<1) ng/g
[5]; nondosed eye
  Concentration: BLQ (<1) ng/g
[3]; choroid, nondosed eye
  Concentration: BLQ (<3) ng/g
[3]; cornea, dosed eye
  Concentration: 350 ng/g
[3]; cornea, nondosed eye
  Concentration: BLQ (<3) ng/g
[3]; iris/ciliary body, dosed eye
  Concentration: 49.4 ng/g
[3]; iris/ciliary body, nondosed eye
  Concentration: BLQ (<3) ng/g
[3]; retina, dosed eye
  Concentration: BLQ (<3) ng/g
[3]; retina, nondosed eye
  Concentration: BLQ (<3) ng/g
[4]; choroid/sclera of dosed eye
  AUC0‐t: 15 300 h × ng/g
  AUC0‐∞: 16 400 h × ng/g
[4]; dosed eye, 1.5 h
  Concentration: 552 ng/g
[4]; dosed eye, 4 h
  Concentration: 340 ng/g
[4]; nondosed eye, 1.5 h
  Concentration: 29.1 ng/g
[4]; nondosed eye, 4 h
  Concentration: 72.3 ng/g
[4]; dosed eye
  choroid/sclera concentration: 1310 ng/g
[4]; nondosed eye
  choroid/sclera concentration: 129 ng/g
[4]; retina of dosed eye
  AUC0‐t: 517 ng·h/g

## Aflibercept: 40 mg/mL EYLEA Injection For Intravitreal Injection; anti‐VEGF agent, positive control
laser‐induced CNV; Day 8, pazopanib eye‐drops 5.0 mg/mL four times daily
  Percentage of Grade 4 lesion: 4.2%
laser‐induced CNV; Day 15, pazopanib eye‐drops 5.0 mg/mL four times daily
  Percentage of Grade 4 lesion: 4.2%
laser‐induced CNV; Day 22, pazopanib eye‐drops 5.0 mg/mL four times daily
  Percentage of Grade 4 lesion: 4.2%
laser‐induced CNV; Day 29, pazopanib eye‐drops 5.0 mg/mL four times daily
  Percentage of Grade 4 lesion: 4.2%
laser‐induced CNV
  Change in incidence of Grade 4 lesions between Day‐1 and Day35: significant efficacy had been maintained until Day35
